# Laboratory results as given in patent publication US10072006B2 (MUTABILIS, priority 2015, dated 2018).
# Key:
# OXA-48 = molecular target: T1, OXA-48 (Klebsiella pneumoniae, UniProt Q6XEC0); assay: β-lactamase inhibitory activity, determination of IC50 (nitrocefin hydrolysis); format: biochemical
# T1 construct: made in house; host or cells: E. coli
# SHV-1 = molecular target: T2, SHV-1 (Klebsiella pneumoniae, UniProt P0AD64); assay: as above; format: biochemical
# T2 construct: made in house; host or cells: E. coli
# KPC-2 = molecular target: T3, KPC-2 (Klebsiella pneumoniae, UniProt Q9F663); assay: as above; format: biochemical
# T3 construct: made in house; host or cells: E. coli
# OXA-11 = molecular target: T4, OXA-11 (Pseudomonas aeruginosa, UniProt Q06778); assay: as above; format: biochemical
# T4 construct: made in house; host or cells: E. coli
# [1] = system: K. pneumoniae 200047 (TEM-1, SHV-32, CTX-M-15, OXA-1); assay: microbe, parasite or virus in culture; format: cell-based; conditions: for MIC: Klebsiella pneumoniae, 18 h, read-out: MIC compounds of the invention alone
# [2] = system: C. murliniae 210102 (VIM-4); assay: MIC of compounds and synergy with ceftazidime (broth microdilution); format: cell-based; conditions: strain 210102 (C. murliniae); for MIC: 18 h, read-out: MIC compounds of the invention alone; for MIC, combination of CAZ and compounds of the invention: MIC of ceftazidime with compound fixed at 4 μg/mL
# Procedure: (§1) Briefly, compounds alone according to the invention were prepared in DMSO and spotted (2 μL each) on sterile polystyrene plates (Corning, 3788). […] Microplates were incubated for 16-20 h at 35° C. in ambient air. The MIC of the compounds was defined as the lowest concentration of said compounds that prevented bacterial growth as read by visual inspection.
# [3] = system: P. aeruginosa UFR48 (VIM-2); assay: as above; format: cell-based; conditions: strain UFR48 (P. aeruginosa); for MIC: Pseudomonas aeruginosa, 18 h, read-out: MIC compounds of the invention alone
# Procedure: as §1
# [4] = system: P. aeruginosa UFR93 (Derepressed ampC, OprD-, MexAB+, MexXY+); assay: as above; format: cell-based; conditions: for MIC: Pseudomonas aeruginosa, 18 h, read-out: MIC compounds of the invention alone
# Procedure: as §1
# [5] = system: E. coli UFR18 (CTX-M-15, OXA-204); assay: as above; format: cell-based; conditions: strain UFR18 (E. coli); for MIC: Escherichia coli, 18 h, read-out: MIC compounds of the invention alone; for MIC, combination of CAZ and compounds of the invention: MIC of ceftazidime with compound fixed at 4 μg/mL
# Procedure: as §1
# [6] = system: P. aeruginosa CIP105250 (OXA-15); assay: as above; format: cell-based; conditions: strain CIP105250 (P. aeruginosa); for MIC, combination of CAZ and compounds of the invention: MIC of ceftazidime with compound fixed at 4 μg/mL; for MIC: Pseudomonas aeruginosa, 18 h, read-out: MIC compounds of the invention alone
# Procedure: as §1
# [7] = system: K. pneumoniae UFR77 (CMY-2); assay: as above; format: cell-based; conditions: strain UFR77 (K. pneumoniae); for MIC: Klebsiella pneumoniae, 18 h, read-out: MIC compounds of the invention alone; for MIC, combination of CAZ and compounds of the invention: MIC of ceftazidime with compound fixed at 4 μg/mL
# Procedure: as §1
# [8] = system: K. pneumoniae BAA-1898 (TEM-1, SHV-11, SHV-12, KPC-2); assay: as above; format: cell-based; conditions: strain BAA-1898 (K. pneumoniae); for MIC: Klebsiella pneumoniae, BAA1898, read-out: MIC compounds of the invention alone; for MIC, combination of CAZ and compounds of the invention: MIC of ceftazidime with compound fixed at 4 μg/mL
# Procedure: as §1
# [9] = system: E. cloacae P99 (Derepressed ampC); assay: as above; format: cell-based; conditions: strain P99 (E. cloacae); for MIC: Enterobacter cloacae, 18 h, read-out: MIC compounds of the invention alone; for MIC, combination of CAZ and compounds of the invention: MIC of ceftazidime with compound fixed at 4 μg/mL
# Procedure: as §1
# [10] = system: E. cloacae UFR70 (TEM-1, CTX-M-15, CMY-2, OXA-1, Porin loss); assay: as above; format: cell-based; conditions: for MIC: Enterobacter cloacae, 18 h, read-out: MIC compounds of the invention alone; for MIC, combination of CAZ and compounds of the invention: MIC of ceftazidime with compound fixed at 4 μg/mL, strain UFR70 (E. cloacae)
# Procedure: as §1
# [11] = system: E. cloacae UFR38 (CTX-M-15, NDM-1); assay: as above; format: cell-based; conditions: strain UFR38 (E. cloacae); for MIC: Enterobacter cloacae, 18 h, read-out: MIC compounds of the invention alone; for MIC, combination of CAZ and compounds of the invention: MIC of ceftazidime with compound fixed at 4 μg/mL
# Procedure: as §1
# [12] = system: E. coli UFR74 (SHV-1, DHA-1); assay: as above; format: cell-based; conditions: strain UFR74 (E. coli); for MIC: Escherichia coli, 18 h, read-out: MIC compounds of the invention alone; for MIC, combination of CAZ and compounds of the invention: MIC of ceftazidime with compound fixed at 4 μg/mL
# Procedure: as §1
# [13] = system: E. coli UFR32 (TEM-1, VEB-1, OXA-10); assay: as above; format: cell-based; conditions: strain UFR32 (E. coli); for MIC: Escherichia coli, 18 h, read-out: MIC compounds of the invention alone; for MIC, combination of CAZ and compounds of the invention: MIC of ceftazidime with compound fixed at 4 μg/mL
# Procedure: as §1
# [14] = system: P. aeruginosa UFR35 (OXA-23); assay: as above; format: cell-based; conditions: strain UFR35 (P. aeruginosa); for MIC: Pseudomonas aeruginosa, 18 h, read-out: MIC compounds of the invention alone
# Procedure: as §1
# [15] = system: K. pneumoniae 160143 (TEM-1, SHV-1, CTX-M-15, KPC-2, OXA-1); assay: microbe, parasite or virus in culture; format: cell-based; conditions: for MIC: Klebsiella pneumoniae, 18 h, read-out: MIC compounds of the invention alone
# Procedure: as §1
# [16] = system: E. cloacae 260508 (TEM-1, CTX-M-15); assay: microbe, parasite or virus in culture; format: cell-based; conditions: for MIC: Enterobacter cloacae, read-out: MIC compounds of the invention alone; for MIC, combination of CAZ and compounds of the invention: MIC of ceftazidime with compound fixed at 4 μg/mL, strain 260508 (E. cloacae)
# Procedure: as §1
# [17] = system: E. coli 190317 (TEM-1, SHV-12, CTX-M-15, OXA-1); assay: microbe, parasite or virus in culture; format: cell-based; conditions: for MIC: Escherichia coli, 18 h, read-out: MIC compounds of the invention alone; for MIC, combination of CAZ and compounds of the invention: MIC of ceftazidime with compound fixed at 4 μg/mL, strain 190317 (E. coli)
# Procedure: as §1
# [18] = system: K. oxytoca UFR21 (TEM-1, CTX-M-15, OXA-48); assay: microbe, parasite or virus in culture; format: cell-based; conditions: for MIC: Klebsiella oxytoca, 18 h, read-out: MIC compounds of the invention alone
# CTX-M-15 = molecular target: T5, CTX-M-15 (Escherichia coli, UniProt Q9EXV5); assay: β-lactamase inhibitory activity, determination of IC50 (nitrocefin hydrolysis); format: biochemical
# T5 construct: made in house; host or cells: E. coli
# OXA-1 = molecular target: T6, OXA-1 (Escherichia coli, UniProt P13661); assay: as above; format: biochemical
# T6 construct: made in house; host or cells: E. coli
# AmpC (P99) = AmpC (P99) (Enterobacter cloacae, UniProt P05364); assay: biochemical
# [19] = system: K. pneumoniae UFR68 (TEM-1, SHV-11, CTX-M-15, KPC-3); assay: microbe, parasite or virus in culture; format: cell-based; conditions: for MIC: Klebsiella pneumoniae, 18 h, read-out: MIC compounds of the invention alone
# [20] = MIC of ceftazidime with compound fixed at 4 μg/mL
# T4 sequence (Q06778 21-266): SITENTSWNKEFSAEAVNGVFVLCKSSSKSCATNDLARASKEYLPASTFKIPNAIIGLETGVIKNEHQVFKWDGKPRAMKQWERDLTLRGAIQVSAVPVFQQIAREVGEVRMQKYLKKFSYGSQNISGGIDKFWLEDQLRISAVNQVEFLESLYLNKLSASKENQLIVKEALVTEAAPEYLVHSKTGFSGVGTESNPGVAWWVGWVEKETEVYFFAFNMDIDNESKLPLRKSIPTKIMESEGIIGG
# T6 sequence (P13661 26-276): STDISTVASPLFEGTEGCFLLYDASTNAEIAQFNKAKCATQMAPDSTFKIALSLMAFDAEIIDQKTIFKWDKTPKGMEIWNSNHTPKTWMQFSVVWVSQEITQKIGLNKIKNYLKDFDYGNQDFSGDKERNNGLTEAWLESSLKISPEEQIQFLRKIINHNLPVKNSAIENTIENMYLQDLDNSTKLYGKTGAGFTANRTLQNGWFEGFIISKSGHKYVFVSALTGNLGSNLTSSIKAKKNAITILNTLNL
# T5 sequence (Q9EXV5 entry or part of it): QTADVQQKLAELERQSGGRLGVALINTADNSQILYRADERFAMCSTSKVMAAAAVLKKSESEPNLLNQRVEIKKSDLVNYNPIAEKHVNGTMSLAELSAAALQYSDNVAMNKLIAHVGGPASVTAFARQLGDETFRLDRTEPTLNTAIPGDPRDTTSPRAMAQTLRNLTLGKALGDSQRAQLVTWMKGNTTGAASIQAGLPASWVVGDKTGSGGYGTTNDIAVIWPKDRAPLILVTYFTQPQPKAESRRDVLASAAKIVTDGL
# T2 sequence (P0AD64 22-286): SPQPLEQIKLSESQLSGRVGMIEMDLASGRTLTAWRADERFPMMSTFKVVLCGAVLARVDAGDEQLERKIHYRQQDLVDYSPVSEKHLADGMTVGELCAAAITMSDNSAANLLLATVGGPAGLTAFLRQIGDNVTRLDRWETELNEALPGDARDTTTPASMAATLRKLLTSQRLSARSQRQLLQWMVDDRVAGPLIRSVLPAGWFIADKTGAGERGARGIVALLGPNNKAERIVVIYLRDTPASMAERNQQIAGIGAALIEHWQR
# T3 sequence (Q9F663 25-293 limits assumed): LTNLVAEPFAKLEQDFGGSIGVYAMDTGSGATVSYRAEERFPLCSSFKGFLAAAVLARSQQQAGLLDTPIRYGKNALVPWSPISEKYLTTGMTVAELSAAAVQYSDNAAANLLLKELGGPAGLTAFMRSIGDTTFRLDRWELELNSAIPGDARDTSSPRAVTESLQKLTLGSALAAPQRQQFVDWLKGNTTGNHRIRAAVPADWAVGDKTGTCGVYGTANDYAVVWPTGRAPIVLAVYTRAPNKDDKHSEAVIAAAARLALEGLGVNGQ
# T1 sequence (Q6XEC0 23-265 limits assumed): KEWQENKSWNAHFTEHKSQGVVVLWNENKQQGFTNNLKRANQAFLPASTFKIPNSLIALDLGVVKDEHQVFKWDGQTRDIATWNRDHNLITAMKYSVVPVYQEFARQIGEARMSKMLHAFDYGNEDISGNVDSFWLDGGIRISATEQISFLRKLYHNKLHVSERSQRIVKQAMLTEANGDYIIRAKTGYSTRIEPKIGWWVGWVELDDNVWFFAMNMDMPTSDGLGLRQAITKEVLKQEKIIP
# Chain of AmpC (P99) (P05364 21-381): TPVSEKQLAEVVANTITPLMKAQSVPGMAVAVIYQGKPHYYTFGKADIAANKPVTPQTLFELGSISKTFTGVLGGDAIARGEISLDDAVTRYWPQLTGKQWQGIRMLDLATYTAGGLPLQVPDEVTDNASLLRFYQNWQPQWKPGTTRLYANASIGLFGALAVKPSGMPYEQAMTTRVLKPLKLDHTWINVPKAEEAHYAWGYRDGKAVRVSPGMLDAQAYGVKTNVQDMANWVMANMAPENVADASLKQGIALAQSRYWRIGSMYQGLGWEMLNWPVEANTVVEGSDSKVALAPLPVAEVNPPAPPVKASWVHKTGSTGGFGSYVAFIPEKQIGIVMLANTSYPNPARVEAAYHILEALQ
structure (smiles),measurement,setting,value
"NC[C@@H]1C(c2ncco2)=C[C@@H]2CN1C(=O)N2OS(=O)(=O)[O-].O=C(O)C(F)(F)F.[Na+] [Example 5, Sodium and 2,2,2-trifluoroacetate [(2S,5R)-2-(azaniumylmethyl)-7-oxo-3-oxazol-2-yl-1,6-diazabicyclo[3.2.1]oct-3-en-6-yl] sulfate]",IC50,OXA-48,180 nM
same,IC50,SHV-1,64 nM
same,IC50,KPC-2,1800 nM
same,IC50,OXA-11,430 nM
same,MIC,[1],16 µg/mL
same,"MIC, combination of CAZ and compounds of the invention","[1]; MIC of ceftazidime with compound fixed at 4 μg/mL, strain 200047 (K. pneumoniae)",<0.25 µg/mL
same,MIC,[2],4 µg/mL
same,"MIC, combination of CAZ and compounds of the invention",[2],<0.25 µg/mL
same,MIC,[3],2 µg/mL
same,MIC,[4],4 µg/mL
same,MIC,[5],≤ 0.016 µg/mL
same,"MIC, combination of CAZ and compounds of the invention",[5],<0.25 µg/mL
same,"MIC, combination of CAZ and compounds of the invention",[6],<0.25 µg/mL
same,MIC,[6],4 µg/mL
same,MIC,[7],> 32 µg/mL
same,"MIC, combination of CAZ and compounds of the invention",[7],<0.25 µg/mL
same,MIC,[8],16 µg/mL
same,"MIC, combination of CAZ and compounds of the invention",[8],≤0.125 µg/mL
same,MIC,[9],≤ 0.016 µg/mL
same,"MIC, combination of CAZ and compounds of the invention",[9],<0.25 µg/mL
same,MIC,[10],8 µg/mL
same,"MIC, combination of CAZ and compounds of the invention",[10],<0.25 µg/mL
same,MIC,[11],≤ 0.016 µg/mL
same,"MIC, combination of CAZ and compounds of the invention",[11],<0.25 µg/mL
same,MIC,[12],16 µg/mL
same,"MIC, combination of CAZ and compounds of the invention",[12],<0.25 µg/mL
same,MIC,[13],0.063 µg/mL
same,"MIC, combination of CAZ and compounds of the invention",[13],<0.25 µg/mL
same,MIC,[14],0.25 µg/mL
same,MIC,[15],32 µg/mL
same,"MIC, combination of CAZ and compounds of the invention","[15]; MIC of ceftazidime with compound fixed at 4 μg/mL, strain 160143 (K. pneumoniae)",<0.25 µg/mL
same,MIC,[16],8 µg/mL
same,"MIC, combination of CAZ and compounds of the invention",[16],<0.25 µg/mL
same,MIC,[17],≤ 0.016 µg/mL
same,"MIC, combination of CAZ and compounds of the invention",[17],<0.25 µg/mL
same,MIC,[18],32 µg/mL
same,"MIC, combination of CAZ and compounds of the invention","[18]; MIC of ceftazidime with compound fixed at 4 μg/mL, strain UFR21 (K. oxytoca)",<0.25 µg/mL
same,IC50,CTX-M-15,130 nM
same,IC50,OXA-1,370 nM
same,IC50,AmpC (P99),11000 nM
same,MIC,[19],32 µg/mL
same,"MIC, combination of CAZ and compounds of the invention","[19]; MIC of ceftazidime with compound fixed at 4 μg/mL, strain UFR68 (K. pneumoniae)",≤0.25 µg/mL
"NC[C@@H]1C(c2nccs2)=C[C@@H]2CN1C(=O)N2OS(=O)(=O)[O-].O=C(O)C(F)(F)F.[Na+] [Example 2, Sodium and 2,2,2-trifluoroacetate [(2S,5R)-2-(azaniumylmethyl)-7-oxo-3-thiazol-2-yl-1,6-diazabicyclo[3.2.1]oct-3-en-6-yl] sulfate]",IC50,OXA-48,3.5 nM
same,IC50,SHV-1,0.74 nM
same,IC50,KPC-2,3.9 nM
same,IC50,OXA-11,6.8 nM
same,MIC,[1],16 µg/mL
same,MIC,[2],4 µg/mL
same,"MIC, combination of CAZ and compounds of the invention",[2],≤0.125 µg/mL
same,"MIC, combination of CAZ and compounds of the invention",[3]; [20],<0.25 µg/mL
same,MIC,[3],2 µg/mL
same,"MIC, combination of CAZ and compounds of the invention","[4]; MIC of ceftazidime with compound fixed at 4 μg/mL, strain UFR93 (P. aeruginosa)",<0.25 µg/mL
same,MIC,[4],4 µg/mL
same,MIC,[5],≤ 0.016 µg/mL
same,"MIC, combination of CAZ and compounds of the invention",[5],<0.25 µg/mL
same,"MIC, combination of CAZ and compounds of the invention",[6],≤0.125 µg/mL
same,MIC,[6],8 µg/mL
same,MIC,[7],32 µg/mL
same,"MIC, combination of CAZ and compounds of the invention",[7],2 µg/mL
same,MIC,[8],16 µg/mL
same,"MIC, combination of CAZ and compounds of the invention",[8],≤0.125 µg/mL
same,MIC,[9],≤ 0.016 µg/mL
same,"MIC, combination of CAZ and compounds of the invention",[9],<0.25 µg/mL
same,MIC,[10],4 µg/mL
same,"MIC, combination of CAZ and compounds of the invention",[10],<0.25 µg/mL
same,MIC,[11],32 µg/mL
same,"MIC, combination of CAZ and compounds of the invention",[11],<0.25 µg/mL
same,MIC,[12],16 µg/mL
same,"MIC, combination of CAZ and compounds of the invention",[12],≤0.125 µg/mL
same,MIC,[13],≤ 0.016 µg/mL
same,"MIC, combination of CAZ and compounds of the invention",[13],<0.25 µg/mL
same,"MIC, combination of CAZ and compounds of the invention",[14]; [20],<0.25 µg/mL
same,MIC,[14],2 µg/mL
same,MIC,[15],8 µg/mL
same,MIC,[16],≤ 0.016 µg/mL
same,"MIC, combination of CAZ and compounds of the invention",[16],<0.25 µg/mL
same,MIC,[17],≤ 0.016 µg/mL
same,"MIC, combination of CAZ and compounds of the invention",[17],<0.25 µg/mL
same,MIC,[18],16 µg/mL
same,IC50,CTX-M-15,0.76 nM
same,IC50,OXA-1,6.1 nM
same,IC50,AmpC (P99),3.2 nM
same,MIC,[19],16 µg/mL
